Data from paper PMC6576746, “Rational discovery of dual-indication multi-target PDE/Kinase inhibitor for precision anti-cancer therapy using structural systems pharmacology” (PLoS Computational Biology, 2019).

How the values were obtained:
EGFR(L858R) = EGFR(L858R) (Homo sapiens, UniProt P00533, L858R); assay: biochemical; design: DiscoverX KinomeScan competition binding assay across human kinases; per cent of control at 10 and 100 uM; details: competition binding, % of control; read-out: Percent Control (100 uM Levosimendan)
Method: (§1) To validate our computational predictions, we employed a competition binding assay to detect the binding of levosimendan to 425 human kinases as well as its dose-response curve to RIOK1. The proprietary KinomeScan assay was performed by DiscoverX (Fremont, California, USA). The tests were performed at 10 μM and 100 μM concentrations of levosimendan, respectively. Assay results were reported as %control, calculated as follows: %control=(TestCompoundSignal−PositiveControlSignal)/(NegativeControlSignal−PositiveControlSignal)×100 KinomeScan assay across 452 human kinases verified our computational prediction (S1 Table). RIOK1 is one of the strongest inhibited kinases by levosimendan. The percentage control of RIOK1 is 15.0 and 0.0 under the treatment of 10 μM and 100 μM of levosimendan, respectively. […] The percentage controls of five kinases: FLT3, MAP2K5, PIP5K1A, GAK, and KIT are less than 30.0 under the treatment of both 10 μM and 100 μM of levosimendan. Both FLT3 and KIT are tyrosine protein kinases. Their inhibitors have recently been approved for the treatment of Acute Myeloid Leukemia and other types of cancers, but a combination therapy is needed to overcome rapidly emerged drug resistance, thus improve patients’ drug responses. Other kinases inhibited by levosimendan belong to serine/threonine protein kinase family (RIOK1, RIOK3, GAK, and MAP2K5) and lipid kinase family (PIP5K1A). […] As a result, levosimendan may modulate different cancer pathways from those by the tyrosine protein kinase inhibitors, and it could be a novel lead compound for a new anti-cancer therapy to overcome drug resistance of existing drugs or to target different types of cancers through polypharmacology or drug combination.

CSF1R-autoinhibited = CSF1R-autoinhibited (Homo sapiens, UniProt P07333); assay: biochemical; design: DiscoverX KinomeScan competition binding assay across human kinases; per cent of control at 10 and 100 uM; details: competition binding, % of control; read-out: Percent Control (100 uM Levosimendan)
Method: as §1

SYK = SYK (Homo sapiens, UniProt P43405); assay: biochemical; design: DiscoverX KinomeScan competition binding assay across human kinases; per cent of control at 10 and 100 uM; details: competition binding, % of control; read-out: Percent Control (100 uM Levosimendan)
Method: as §1

[1] = target: T1, ABL1(E255K)-phosphorylated (Homo sapiens, UniProt P00519, E255K); assay: biochemical; design: DiscoverX KinomeScan competition binding assay across human kinases; per cent of control at 10 and 100 uM; details: competition binding, % of control
T1 construct: phosphorylated
Method: as §1

SRPK1 = SRPK1 (Homo sapiens, UniProt Q96SB4); assay: biochemical; design: DiscoverX KinomeScan competition binding assay across human kinases; per cent of control at 10 and 100 uM; details: competition binding, % of control
Method: as §1

ERK8 = target: T2, ERK8 (Homo sapiens, UniProt Q8TD08); assay: biochemical; design: DiscoverX KinomeScan competition binding assay across human kinases; per cent of control at 10 and 100 uM; details: competition binding, % of control; read-out: Percent Control (100 uM Levosimendan)
T2 construct: gene MAPK15
Method: as §1

TBK1 = TBK1 (Homo sapiens, UniProt Q9UHD2); assay: biochemical; design: DiscoverX KinomeScan competition binding assay across human kinases; per cent of control at 10 and 100 uM; details: competition binding, % of control
Method: as §1

SGK3 = SGK3 (Homo sapiens, UniProt Q96BR1); assay: biochemical; design: DiscoverX KinomeScan competition binding assay across human kinases; per cent of control at 10 and 100 uM; details: competition binding, % of control; read-out: Percent Control (100 uM Levosimendan)
Method: as §1

RIPK5 = target: T3, RIPK5 (Homo sapiens, UniProt Q6XUX3); assay: biochemical; design: DiscoverX KinomeScan competition binding assay across human kinases; per cent of control at 10 and 100 uM; details: competition binding, % of control; read-out: Percent Control (100 uM Levosimendan)
T3 construct: gene DSTYK
Method: as §1

GAK [2] = target: GAK (Homo sapiens, UniProt O14976); assay: biochemical; design: DiscoverX KinomeScan competition binding assay across human kinases; per cent of control at 10 and 100 uM; details: competition binding, % of control
Method: as §1
Target sequence in this assay (O14976 whole entry): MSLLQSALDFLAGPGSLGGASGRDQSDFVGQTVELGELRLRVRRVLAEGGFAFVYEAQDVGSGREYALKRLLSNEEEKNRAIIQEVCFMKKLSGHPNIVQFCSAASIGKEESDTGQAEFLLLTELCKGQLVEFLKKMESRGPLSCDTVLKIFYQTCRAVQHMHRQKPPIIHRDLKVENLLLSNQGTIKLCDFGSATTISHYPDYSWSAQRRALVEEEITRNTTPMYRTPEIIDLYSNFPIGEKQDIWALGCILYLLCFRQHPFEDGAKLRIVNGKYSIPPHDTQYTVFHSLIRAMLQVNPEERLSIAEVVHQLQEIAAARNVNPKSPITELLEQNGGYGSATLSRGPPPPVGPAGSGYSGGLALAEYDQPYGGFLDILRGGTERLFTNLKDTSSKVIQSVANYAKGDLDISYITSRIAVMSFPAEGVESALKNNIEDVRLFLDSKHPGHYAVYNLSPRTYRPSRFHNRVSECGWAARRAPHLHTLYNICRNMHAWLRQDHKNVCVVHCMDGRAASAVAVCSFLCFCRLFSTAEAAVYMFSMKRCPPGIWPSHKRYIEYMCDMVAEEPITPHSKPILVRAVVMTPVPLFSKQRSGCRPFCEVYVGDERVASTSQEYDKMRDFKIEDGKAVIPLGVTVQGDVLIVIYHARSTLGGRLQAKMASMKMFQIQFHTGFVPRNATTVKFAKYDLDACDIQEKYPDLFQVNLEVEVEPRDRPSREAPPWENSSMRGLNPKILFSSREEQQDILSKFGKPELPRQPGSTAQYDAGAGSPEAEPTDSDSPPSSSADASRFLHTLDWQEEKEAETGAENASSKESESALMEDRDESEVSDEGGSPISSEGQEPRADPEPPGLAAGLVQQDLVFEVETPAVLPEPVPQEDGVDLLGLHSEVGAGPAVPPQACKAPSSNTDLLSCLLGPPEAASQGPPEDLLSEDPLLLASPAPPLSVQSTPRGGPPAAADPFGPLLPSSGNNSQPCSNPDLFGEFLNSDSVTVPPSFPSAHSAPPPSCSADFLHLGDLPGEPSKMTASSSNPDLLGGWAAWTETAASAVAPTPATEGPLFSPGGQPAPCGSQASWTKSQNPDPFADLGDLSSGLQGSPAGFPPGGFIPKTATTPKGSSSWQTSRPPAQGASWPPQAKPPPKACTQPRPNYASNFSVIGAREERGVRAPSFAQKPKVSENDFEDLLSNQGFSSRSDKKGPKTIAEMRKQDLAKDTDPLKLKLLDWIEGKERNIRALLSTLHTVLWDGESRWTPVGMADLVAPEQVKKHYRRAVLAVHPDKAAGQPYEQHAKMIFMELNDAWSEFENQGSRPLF

FER = FER (Homo sapiens, UniProt P16591); assay: biochemical; design: DiscoverX KinomeScan competition binding assay across human kinases; per cent of control at 10 and 100 uM; details: competition binding, % of control; read-out: Percent Control (100 uM Levosimendan)
Method: as §1

ALK(C1156Y) = ALK(C1156Y) (Homo sapiens, UniProt Q9UM73, C1156Y); assay: biochemical; design: DiscoverX KinomeScan competition binding assay across human kinases; per cent of control at 10 and 100 uM; details: competition binding, % of control; read-out: Percent Control (100 uM Levosimendan)
Method: as §1

PKMYT1 = PKMYT1 (Homo sapiens, UniProt Q99640); assay: biochemical; design: DiscoverX KinomeScan competition binding assay across human kinases; per cent of control at 10 and 100 uM; details: competition binding, % of control; read-out: Percent Control (100 uM Levosimendan)
Method: as §1

PCTK2 = target: T4, PCTK2 (Homo sapiens, UniProt Q00537); assay: biochemical; design: DiscoverX KinomeScan competition binding assay across human kinases; per cent of control at 10 and 100 uM; details: competition binding, % of control; read-out: Percent Control (100 uM Levosimendan)
T4 construct: gene CDK17
Method: as §1

MST1 = target: T5, MST1 (Homo sapiens, UniProt Q13043); assay: biochemical; design: DiscoverX KinomeScan competition binding assay across human kinases; per cent of control at 10 and 100 uM; details: competition binding, % of control; read-out: Percent Control (100 uM Levosimendan)
T5 construct: gene STK4
Method: as §1

AXL = AXL (Homo sapiens, UniProt P30530); assay: biochemical; design: DiscoverX KinomeScan competition binding assay across human kinases; per cent of control at 10 and 100 uM; details: competition binding, % of control; read-out: Percent Control (100 uM Levosimendan)
Method: as §1

ERBB4 = ERBB4 (Homo sapiens, UniProt Q15303); assay: biochemical; design: DiscoverX KinomeScan competition binding assay across human kinases; per cent of control at 10 and 100 uM; details: competition binding, % of control; read-out: Percent Control (100 uM Levosimendan)
Method: as §1

TIE2 = target: T6, TIE2 (Homo sapiens, UniProt Q02763); assay: biochemical; design: DiscoverX KinomeScan competition binding assay across human kinases; per cent of control at 10 and 100 uM; details: competition binding, % of control; read-out: Percent Control (100 uM Levosimendan)
T6 construct: gene TEK
Method: as §1

GAK [3] = target: T7, GAK (Homo sapiens, UniProt O14976); assay: KinomeScan competition binding assay; details: 10 μM levosimendan
T7 construct: DiscoverX KinomeScan panel kinase

[4] = read-out: Percent Control (10 uM Levosimendan)
[5] = read-out: Percent Control (100 uM Levosimendan)

T1 sequence (P00519 whole entry E255K): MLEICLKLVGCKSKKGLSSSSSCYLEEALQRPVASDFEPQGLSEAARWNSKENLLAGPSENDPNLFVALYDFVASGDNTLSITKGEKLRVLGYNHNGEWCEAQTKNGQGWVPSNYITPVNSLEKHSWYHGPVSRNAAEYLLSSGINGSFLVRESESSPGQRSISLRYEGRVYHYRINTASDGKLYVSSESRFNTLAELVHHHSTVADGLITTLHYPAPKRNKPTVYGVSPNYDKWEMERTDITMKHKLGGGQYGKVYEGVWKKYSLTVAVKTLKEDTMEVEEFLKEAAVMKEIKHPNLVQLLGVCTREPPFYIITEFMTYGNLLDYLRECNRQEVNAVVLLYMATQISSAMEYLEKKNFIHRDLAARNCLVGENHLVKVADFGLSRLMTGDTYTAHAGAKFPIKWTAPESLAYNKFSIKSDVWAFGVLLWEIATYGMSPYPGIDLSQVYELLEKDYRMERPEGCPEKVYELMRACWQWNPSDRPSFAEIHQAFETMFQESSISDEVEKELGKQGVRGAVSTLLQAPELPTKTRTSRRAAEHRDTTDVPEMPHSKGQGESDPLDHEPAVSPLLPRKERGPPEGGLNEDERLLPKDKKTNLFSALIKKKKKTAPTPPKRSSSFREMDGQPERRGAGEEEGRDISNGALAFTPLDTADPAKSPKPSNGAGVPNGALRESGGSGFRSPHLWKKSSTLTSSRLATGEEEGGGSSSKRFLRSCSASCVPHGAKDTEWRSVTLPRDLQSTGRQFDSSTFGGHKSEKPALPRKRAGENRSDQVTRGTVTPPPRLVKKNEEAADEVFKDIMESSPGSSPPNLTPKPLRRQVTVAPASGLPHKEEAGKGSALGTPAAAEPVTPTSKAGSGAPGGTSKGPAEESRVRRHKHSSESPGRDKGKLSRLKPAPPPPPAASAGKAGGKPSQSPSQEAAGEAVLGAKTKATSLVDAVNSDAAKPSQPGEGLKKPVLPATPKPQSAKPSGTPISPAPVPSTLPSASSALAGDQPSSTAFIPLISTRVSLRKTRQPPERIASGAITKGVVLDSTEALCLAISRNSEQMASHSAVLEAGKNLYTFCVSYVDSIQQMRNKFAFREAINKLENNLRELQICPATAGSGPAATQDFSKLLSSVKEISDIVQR
Chain of TBK1 (Q9UHD2 whole entry): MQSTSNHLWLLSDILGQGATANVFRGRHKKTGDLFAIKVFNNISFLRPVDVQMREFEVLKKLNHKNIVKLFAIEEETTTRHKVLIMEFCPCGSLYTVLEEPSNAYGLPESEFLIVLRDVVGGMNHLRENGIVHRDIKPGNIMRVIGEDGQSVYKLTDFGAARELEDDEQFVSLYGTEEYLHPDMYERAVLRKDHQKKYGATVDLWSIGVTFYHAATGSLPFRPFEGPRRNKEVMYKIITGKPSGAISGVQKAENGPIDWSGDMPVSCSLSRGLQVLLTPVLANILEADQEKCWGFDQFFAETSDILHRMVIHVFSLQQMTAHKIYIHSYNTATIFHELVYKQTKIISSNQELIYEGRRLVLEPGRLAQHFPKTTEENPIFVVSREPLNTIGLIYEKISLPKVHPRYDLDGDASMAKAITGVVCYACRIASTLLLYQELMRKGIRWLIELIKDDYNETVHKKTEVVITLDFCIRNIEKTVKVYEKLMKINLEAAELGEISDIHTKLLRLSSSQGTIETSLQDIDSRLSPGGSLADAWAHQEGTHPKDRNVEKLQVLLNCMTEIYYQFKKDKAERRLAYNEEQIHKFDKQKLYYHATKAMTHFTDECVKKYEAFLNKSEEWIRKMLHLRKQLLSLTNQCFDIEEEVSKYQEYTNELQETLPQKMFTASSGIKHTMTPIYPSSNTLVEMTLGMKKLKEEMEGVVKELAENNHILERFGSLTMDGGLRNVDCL
Chain of SRPK1 (Q96SB4 whole entry): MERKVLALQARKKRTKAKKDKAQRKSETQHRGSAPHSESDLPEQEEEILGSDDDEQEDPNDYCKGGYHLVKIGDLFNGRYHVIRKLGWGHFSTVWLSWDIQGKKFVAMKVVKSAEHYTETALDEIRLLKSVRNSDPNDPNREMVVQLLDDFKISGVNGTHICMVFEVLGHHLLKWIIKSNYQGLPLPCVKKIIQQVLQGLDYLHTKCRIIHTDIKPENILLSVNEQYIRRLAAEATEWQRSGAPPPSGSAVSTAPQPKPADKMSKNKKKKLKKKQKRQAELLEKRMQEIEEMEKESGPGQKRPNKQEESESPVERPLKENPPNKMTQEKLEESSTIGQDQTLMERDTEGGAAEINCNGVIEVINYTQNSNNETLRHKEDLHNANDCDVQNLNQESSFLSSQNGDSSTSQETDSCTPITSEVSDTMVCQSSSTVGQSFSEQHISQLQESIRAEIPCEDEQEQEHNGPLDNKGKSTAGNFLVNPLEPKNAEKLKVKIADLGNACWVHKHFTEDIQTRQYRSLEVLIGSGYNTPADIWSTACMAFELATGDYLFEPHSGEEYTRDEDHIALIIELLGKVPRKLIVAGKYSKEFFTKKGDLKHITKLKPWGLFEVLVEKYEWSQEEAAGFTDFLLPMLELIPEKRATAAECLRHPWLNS
Chain of SGK3 (Q96BR1 whole entry): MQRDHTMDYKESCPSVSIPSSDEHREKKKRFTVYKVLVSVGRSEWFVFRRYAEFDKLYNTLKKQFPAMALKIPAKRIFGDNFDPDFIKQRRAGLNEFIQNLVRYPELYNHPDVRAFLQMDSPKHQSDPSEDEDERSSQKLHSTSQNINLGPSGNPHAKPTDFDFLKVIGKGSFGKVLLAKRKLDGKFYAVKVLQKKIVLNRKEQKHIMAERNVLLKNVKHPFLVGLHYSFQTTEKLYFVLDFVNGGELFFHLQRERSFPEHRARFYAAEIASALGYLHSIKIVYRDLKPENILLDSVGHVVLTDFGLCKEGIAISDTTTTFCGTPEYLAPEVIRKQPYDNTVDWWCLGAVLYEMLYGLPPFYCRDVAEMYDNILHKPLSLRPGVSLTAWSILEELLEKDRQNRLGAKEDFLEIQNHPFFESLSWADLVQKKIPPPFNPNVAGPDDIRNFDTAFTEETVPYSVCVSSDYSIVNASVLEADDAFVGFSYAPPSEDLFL
T5 sequence (Q13043 whole entry): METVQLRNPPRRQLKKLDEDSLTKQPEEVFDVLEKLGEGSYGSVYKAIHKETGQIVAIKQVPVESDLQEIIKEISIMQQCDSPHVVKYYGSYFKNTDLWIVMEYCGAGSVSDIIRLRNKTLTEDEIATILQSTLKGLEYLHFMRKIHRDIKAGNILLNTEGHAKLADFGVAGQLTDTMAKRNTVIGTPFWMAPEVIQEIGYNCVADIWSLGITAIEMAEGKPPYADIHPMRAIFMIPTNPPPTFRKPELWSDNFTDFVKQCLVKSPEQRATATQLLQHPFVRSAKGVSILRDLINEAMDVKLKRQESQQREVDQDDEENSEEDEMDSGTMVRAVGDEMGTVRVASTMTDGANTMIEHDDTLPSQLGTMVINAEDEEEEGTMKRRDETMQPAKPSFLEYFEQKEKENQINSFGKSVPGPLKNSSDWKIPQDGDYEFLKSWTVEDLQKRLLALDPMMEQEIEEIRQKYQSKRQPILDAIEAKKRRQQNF

C[C@@H]1CC(=O)NN=C1c1ccc(NN=C(C#N)C#N)cc1 [levosimendan]
remaining binding at 100 µM (EGFR(L858R)): 63% | remaining binding at 100 µM (CSF1R-autoinhibited): 85% | remaining binding at 100 µM (SYK): 78% | remaining binding at 10 µM [1, 4]: 97% | remaining binding at 100 µM [1, 5]: 34% | remaining binding at 10 µM (SRPK1; [4]): 36% | remaining binding at 100 µM (SRPK1; [5]): 40% | remaining binding at 100 µM (ERK8): 100% | remaining binding at 10 µM (TBK1; [4]): 94% | remaining binding at 100 µM (TBK1; [5]): 38% | remaining binding at 100 µM (SGK3): 92% | remaining binding at 100 µM (RIPK5): 60% | remaining binding at 10 µM (GAK [2]; [4]): 24% | remaining binding at 100 µM (GAK [2]; [5]): 16% | remaining binding at 100 µM (FER): 100% | remaining binding at 100 µM (ALK(C1156Y)): 64% | remaining binding at 100 µM (PKMYT1): 57% | remaining binding at 100 µM (PCTK2): 100% | remaining binding at 100 µM (MST1): 75% | remaining binding at 100 µM (AXL): 83% | remaining binding at 100 µM (ERBB4): 63% | remaining binding at 100 µM (TIE2): 78% | percentage control at 10 μM (GAK [3]): < 30.0%
